1 compound from publication PMC4862498, “PI4 Kinase Is a Prophylactic but Not Radical Curative Target in Plasmodium vivax-Type Malaria Parasites” (Antimicrobial Agents and Chemotherapy, 2016) can be followed below.

Molecules are shown by their SMILES.

On the set-up of data set [1]: species or system mice and monkeys. As to conditions: in vivo. The procedure: Details of in vivo PK studies of KDU691 and LMV599 in CD-1 mice and monkeys can be found in the supplemental material.
Pharmacokinetic analysis.
Mean values of compound concentrations in plasma and liver were obtained from three animals at each time point and plotted against time to generate concentration-time profiles. Pharmacokinetic parameters were determined using WinNonlin Professional, version 5.0.1 (Pharsight, California, USA), by non-compartmental modeling using software model 200 for oral dosing. The oral bioavailability (F) was calculated as the ratio between the area under the curve from 0 to infinity (AUCinf) following oral administration and the AUCinf following intravenous administration corrected for dose (F = AUCp.o. * dosei.v. / AUCi.v. * dosep.o.).
PK-PD relationship analysis.
The compound concentration that inhibited 50% of P. cynomolgi growth (IC50) was used to calculate the threshold (TRE = 3*IC50) and the PK-PD indices. The Cmax/TRE was defined as the ratio of peak plasma concentration (Cmax) to the threshold (3*IC50), the AUC0-24/TRE was defined as the ratio of area under the curve from 0 to 24 hours (AUC0-24) to the threshold, and the percent time over threshold (%T>TRE) was defined as the percentage of the 24 hour period during which the compound concentration exceeded the […]
Table S3: Monkey stratification for the in vivo testing of KDU691. […]

Data set [2] can be described thus: Clinical chemistry, hematology, weight and clinical observation of treated monkeys. The data set is classed as in vivo, rhesus macaques (Macaca mulatta). As to conditions: rhesus monkey, in vivo. The method, then:
Monkeys were treated according to the schedule shown in Table 1 (stratification of treatment groups is given in the supplemental material). During treatment, monkeys were weighed daily and received the compound via gavage, followed by gastric feeding (weight change during treatment is shown in Table S6 in the supplemental material). Monkeys in the prophylaxis groups (groups 691-proph and 599-proph) were treated ∼20 min after the i.v. sporozoite injection. The other monkeys were treated when all the monkeys in the experiment (except those in the prophylaxis group) were blood-stage patent (at day 11 p.i.). To kill the blood-stage parasites, all monkeys received a 5-day treatment of 7.5 mg/kg of body weight of chloroquine (CQ) (intramuscular [i.m.] injection), during compound dosing. KDU691 was formulated in 0.5% methylcellulose and 0.5% Tween 80 in water. LMV599 was formulated as a solid dispersion in a solution containing 5.6% (wt/wt) Tween 80–44.4% hydroxypropyl methylcellulose (HPMC) E3–38.9% Soluplus–11.1% vitamin E D-alphatocopheryl polyethylene glycol 1000 succinate (TPGS).
Blood samples were collected for clinical evaluation and pharmacokinetic (PK) analysis (see Table S2 in the supplemental material).
When the first relapse was observed, monkeys of the KDU691 experiment were radically cured with primaquine (PQ)/CQ (oral administration of 1.8 mg/kg PQ for 14 days together with i.m. administration of 7.5 mg/kg CQ for the first five days of PQ treatment) to cure both blood stage and liver stage parasites, […]
The monkeys of the LMV599/PQ experiment were cured with a five day CQ treatment (7.5 mg/kg, i.m. administration) at the first relapse and were monitored until the second relapse after which they were cured with CQ (7.5 mg/kg, intramuscular (i.m.) for five days) plus PQ (1.8 mg/kg for 14 days).
Table S2: PK and clinical blood sampling schedule in monkeys.
Groups are named 691 for KDU691 and 599 for LMV599 treatment groups, followed by -C for control group (no compound), -proph for prophylactic treatment (treated immediately after infection), and -RC for radical cure treatment (treated when blood stage positive). […]
the face and chest areas were very yellow. Therefore the 691-RC group (treated from d11 to d15 pi) was monitored by daily clinical chemistry analysis during dosing to be compared with untreated 691-C. […]
sampling of the single dose prophylaxis group at day 0, 1, 7 and 100. The lack of aberrant clinical […]
as radical cure compound, during which also clinical sampling was performed daily. a: only clinical chemistry samples were taken. *: t = 24 sample was taken only on the 1st day of dosing.
Group name Clin. chem PK sampling PK time points
Hematology (h post dosing)
691-proph 1st and 5th day of dosing t = 0, 1, 4, 6 and 24*
691-RC Dailya 1st and 5th day of dosing t = 0, 1, 4, 6 and 24* […]
599-RC Daily 1st and 4th day of dosing t = 0, 1, 2, 4 and 24
Clinical chemistry and hematology
For the clinical analysis serum from 1 mL of clotted blood was analysed using the Cobas Integra 400 plus fully automated chemistry analyser. The following clinical parameters were determined: Alkaline phosphatase; Alanine Aminotransferase; Albumin: Aspartate aminotransfeasr; Bilirubin; Calcium; Cholesterol; Creatine kinase; Creatinine; C-reactive protein: Iron; Phosphate; Gamma-glutamyl transpeptidase; Glucose; Hemoglobin; Potassium; Lactate dehydrogenase; Sodium; Total protein; Urea Haematological parameters were determined from 1 mL EDTA-blood with a Sysmex XT-2000iV automated system. The following hematological parameters were determined: Basophilic granulocytes; Eosinophilic granulocytes; Erythrocytes; Hematocrit; Leucocytes; Leucocyte differentiation; Lymphocytes; Mean corpusculair hemoglobin; Mean corpusculair hemoglobin concentration; Mean corpusculair volume; Neutrophilic granulocytes; Red cell distribution width; Thrombocytes […]
Liver tissue samples were excised, dipped in PBS, gently blotted with absorbent paper, dried, weighed and stored at -20 °C until further analysis. […]

On to `CNC(=O)c1ccc(-c2cnc3cnc(C(=O)N(C)c4ccc(Cl)cc4)cn23)cc1` [KDU691], for which the oral bioavailability in data set [1] is 52-66%. Also, in data set [2], the “weight loss, % of the initial weight” value was 3.5%.
